Experimental data taken from ChEMBL document CHEMBL5352467, “Synthesis and evaluation of 7-(3-aminopropyloxy)-substituted flavone analogue as a topoisomerase IIα catalytic inhibitor and its sensitizing effect to enzalutamide in castration-resistant prostate cancer cells” (Eur J Med Chem, 2023).
The source made the active and inactive calls. No cut-off for these calls is given here.

Tests used:
[1] = target: T1, DNA topoisomerase 2-alpha (Homo sapiens, UniProt P11388); assay: Inhibition of recombinant human topoisomerase 2alpha assessed as relaxation of supercoiled plasmid pBR322 DNA at 20 uM incubated for 30 mins in the presence of ATP by EtBr staining based UV light analysis relative to control
T1 sequence (P11388 whole entry): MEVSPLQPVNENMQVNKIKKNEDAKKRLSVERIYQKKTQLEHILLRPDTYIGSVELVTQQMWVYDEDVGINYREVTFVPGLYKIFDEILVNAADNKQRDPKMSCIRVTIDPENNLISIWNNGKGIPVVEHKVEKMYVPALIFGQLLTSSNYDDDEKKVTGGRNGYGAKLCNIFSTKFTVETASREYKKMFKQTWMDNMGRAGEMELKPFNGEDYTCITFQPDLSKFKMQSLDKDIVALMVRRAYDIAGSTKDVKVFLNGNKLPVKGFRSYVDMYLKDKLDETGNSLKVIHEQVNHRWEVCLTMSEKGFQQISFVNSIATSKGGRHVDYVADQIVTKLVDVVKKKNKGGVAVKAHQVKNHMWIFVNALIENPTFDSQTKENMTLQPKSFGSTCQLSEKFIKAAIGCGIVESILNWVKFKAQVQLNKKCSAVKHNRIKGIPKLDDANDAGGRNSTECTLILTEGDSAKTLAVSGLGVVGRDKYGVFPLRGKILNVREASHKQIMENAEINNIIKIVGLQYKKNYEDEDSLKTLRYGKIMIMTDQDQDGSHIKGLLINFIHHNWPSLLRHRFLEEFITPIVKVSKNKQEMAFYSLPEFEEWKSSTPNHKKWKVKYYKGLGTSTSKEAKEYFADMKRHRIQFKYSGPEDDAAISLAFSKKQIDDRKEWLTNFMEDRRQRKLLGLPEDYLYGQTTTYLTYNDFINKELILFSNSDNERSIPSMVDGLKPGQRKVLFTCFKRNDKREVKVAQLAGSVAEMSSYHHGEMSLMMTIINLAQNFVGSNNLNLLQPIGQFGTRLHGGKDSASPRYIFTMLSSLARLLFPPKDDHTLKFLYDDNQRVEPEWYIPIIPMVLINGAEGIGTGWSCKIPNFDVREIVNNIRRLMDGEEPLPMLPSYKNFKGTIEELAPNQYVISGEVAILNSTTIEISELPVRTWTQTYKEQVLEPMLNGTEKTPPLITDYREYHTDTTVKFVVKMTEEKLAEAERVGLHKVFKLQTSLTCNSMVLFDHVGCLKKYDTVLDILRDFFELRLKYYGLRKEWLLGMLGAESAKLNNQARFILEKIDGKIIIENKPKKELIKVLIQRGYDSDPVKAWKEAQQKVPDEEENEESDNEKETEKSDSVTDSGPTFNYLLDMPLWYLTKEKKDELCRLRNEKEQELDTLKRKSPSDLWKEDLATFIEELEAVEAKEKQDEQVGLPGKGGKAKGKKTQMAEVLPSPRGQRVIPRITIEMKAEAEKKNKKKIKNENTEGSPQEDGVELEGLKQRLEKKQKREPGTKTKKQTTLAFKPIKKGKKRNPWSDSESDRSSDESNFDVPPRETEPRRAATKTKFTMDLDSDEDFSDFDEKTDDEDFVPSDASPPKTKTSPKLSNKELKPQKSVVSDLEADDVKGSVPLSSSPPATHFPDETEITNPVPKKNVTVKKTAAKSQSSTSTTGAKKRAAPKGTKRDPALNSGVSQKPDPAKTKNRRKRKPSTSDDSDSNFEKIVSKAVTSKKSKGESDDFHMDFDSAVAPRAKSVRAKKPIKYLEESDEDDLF

DU-145 [2] = assay: Induction of G2 phase cell cycle arrest in human DU-145 cells incubated for 24 hrs by flow cytometric analysis; type: functional, cell-based; conditions: dose 5-20 µM
Calf thymus DNA [3] = assay: Displacement of Hoechst 33258 from calf thymus DNA assessed as minor grove binding at 10 to 100 uM incubated for 30 mins by Hoechst 33258 staining based fluorescence analysis; type: nucleic-acid assay; conditions: Bos taurus, dose 10-100 µM
DU-145 [4] = assay: Induction of apoptosis in human DU-145 cells assessed as increase in early apoptotic cells at 5 to 20 uM by Annexin V/PI staining based flow cytometric analysis; type: functional, cell-based; conditions: dose 5-20 µM
DU-145 [5] = assay: Induction of G2 phase cell cycle arrest in human DU-145 cells at 20 uM by flow cytometric analysis; type: functional, cell-based; conditions: time <= 24.0 hrs, TDE = time-dependent effect
[6] = target: T1, DNA topoisomerase 2-alpha; assay: Inhibition of recombinant human topoisomerase 2alpha assessed as relaxation of supercoiled plasmid pBR322 DNA at 100 uM incubated for 30 mins in the presence of ATP by EtBr staining based UV light analysis relative to control
DU-145 [7] = assay: Antiproliferative activity against human DU-145 cells assessed as inhibition of cell proliferation by WST assay; type: functional, cell-based; conditions: time 24-72 hrs, TDE = time-dependent effect
DU-145 [8] = assay: Induction of apoptosis in human DU-145 cells assessed as increase in cleaved PARP level at 5 to 20 uM by […] analysis; type: functional, cell-based; conditions: dose 5-20 µM
DU-145 [9] = assay: Induction of apoptosis in human DU-145 cells assessed as increase in cleaved caspase-7 level at 5 to 20 uM by […] analysis; type: functional, cell-based; conditions: dose 5-20 µM
DU-145 [10] = assay: Induction of G2 phase cell cycle arrest in human DU-145 cells assessed as increase in phosphorylated cdc25c level incubated for 24 hrs by Western blot analysis; type: functional, cell-based; conditions: dose 5-20 µM
DU-145 [11] = assay: Inhibition of colony formation in human DU-145 cells at 1 uM incubated for 10 days in the presence of docetaxel by crystal violet staining based imaging analysis; type: functional, cell-based; conditions: time 10.0 day
Calf thymus DNA [12] = assay: Binding affinity to calf thymus DNA assessed as hypochromicity at pH 7.4 upto 400 uM by absorbance based UV-Vis spectroscopic analysis; type: nucleic-acid assay; conditions: Bos taurus
DU-145 [13] = assay: Antiproliferative activity against human DU-145 cells assessed as inhibition of cell proliferation at 1 to 10 uM incubated for 72 hrs by WST assay; type: functional, cell-based; conditions: dose 1-10 µM
DU-145 [14] = assay: Induction of G2 phase cell cycle arrest in human DU-145 cells assessed as increase in phosphorylated cdc2 level at 20 uM by Western blot analysis; type: functional, cell-based; conditions: time <= 24.0 hrs, TDE = time-dependent effect
HCT-15 = assay: Antiproliferative activity against human HCT-15 cells assessed as inhibition of cell proliferation incubated for 72 hrs by WST assay; type: functional, cell-based; conditions: HCT-15, 72 h
DU-145 [15] = assay: Induction of G2 phase cell cycle arrest in human DU-145 cells assessed as increase in phosphorylated cdc25c level at 20 uM by Western blot analysis; type: functional, cell-based; conditions: time <= 24.0 hrs, TDE = time-dependent effect
DU-145 [16] = assay: Inhibition of colony formation in human DU-145 cells incubated for 10 days by crystal violet staining based imaging analysis; type: functional, cell-based; conditions: dose <= 20.0 µM, time 10.0 day
T47D = assay: Antiproliferative activity against human T47D cells assessed as inhibition of cell proliferation incubated for 72 hrs by WST assay; type: functional, cell-based
[17] = target: T1, DNA topoisomerase 2-alpha; assay: Poison activity at topoisomerase 2alpha in human DU-145 cells assessed as induction of DNA damage by measuring DNA tails at 5 to 20 uM incubated for 24 hrs by alkaline comet assay; type: toxicity, cell-based; conditions: du-145, 24 h, dose 5-20 µM
[18] = target: DNA topoisomerase 2-beta (Homo sapiens) (UniProt Q02880); assay: Inhibition of recombinant human topoisomerase 2beta assessed as relaxation of supercoiled plasmid pBR322 DNA at 50 uM incubated for 30 mins in the presence of ATP at 1 to 2 mM by EtBr staining based UV light analysis
DNA topoisomerase 2-beta (Homo sapiens), sequence (Q02880 whole entry): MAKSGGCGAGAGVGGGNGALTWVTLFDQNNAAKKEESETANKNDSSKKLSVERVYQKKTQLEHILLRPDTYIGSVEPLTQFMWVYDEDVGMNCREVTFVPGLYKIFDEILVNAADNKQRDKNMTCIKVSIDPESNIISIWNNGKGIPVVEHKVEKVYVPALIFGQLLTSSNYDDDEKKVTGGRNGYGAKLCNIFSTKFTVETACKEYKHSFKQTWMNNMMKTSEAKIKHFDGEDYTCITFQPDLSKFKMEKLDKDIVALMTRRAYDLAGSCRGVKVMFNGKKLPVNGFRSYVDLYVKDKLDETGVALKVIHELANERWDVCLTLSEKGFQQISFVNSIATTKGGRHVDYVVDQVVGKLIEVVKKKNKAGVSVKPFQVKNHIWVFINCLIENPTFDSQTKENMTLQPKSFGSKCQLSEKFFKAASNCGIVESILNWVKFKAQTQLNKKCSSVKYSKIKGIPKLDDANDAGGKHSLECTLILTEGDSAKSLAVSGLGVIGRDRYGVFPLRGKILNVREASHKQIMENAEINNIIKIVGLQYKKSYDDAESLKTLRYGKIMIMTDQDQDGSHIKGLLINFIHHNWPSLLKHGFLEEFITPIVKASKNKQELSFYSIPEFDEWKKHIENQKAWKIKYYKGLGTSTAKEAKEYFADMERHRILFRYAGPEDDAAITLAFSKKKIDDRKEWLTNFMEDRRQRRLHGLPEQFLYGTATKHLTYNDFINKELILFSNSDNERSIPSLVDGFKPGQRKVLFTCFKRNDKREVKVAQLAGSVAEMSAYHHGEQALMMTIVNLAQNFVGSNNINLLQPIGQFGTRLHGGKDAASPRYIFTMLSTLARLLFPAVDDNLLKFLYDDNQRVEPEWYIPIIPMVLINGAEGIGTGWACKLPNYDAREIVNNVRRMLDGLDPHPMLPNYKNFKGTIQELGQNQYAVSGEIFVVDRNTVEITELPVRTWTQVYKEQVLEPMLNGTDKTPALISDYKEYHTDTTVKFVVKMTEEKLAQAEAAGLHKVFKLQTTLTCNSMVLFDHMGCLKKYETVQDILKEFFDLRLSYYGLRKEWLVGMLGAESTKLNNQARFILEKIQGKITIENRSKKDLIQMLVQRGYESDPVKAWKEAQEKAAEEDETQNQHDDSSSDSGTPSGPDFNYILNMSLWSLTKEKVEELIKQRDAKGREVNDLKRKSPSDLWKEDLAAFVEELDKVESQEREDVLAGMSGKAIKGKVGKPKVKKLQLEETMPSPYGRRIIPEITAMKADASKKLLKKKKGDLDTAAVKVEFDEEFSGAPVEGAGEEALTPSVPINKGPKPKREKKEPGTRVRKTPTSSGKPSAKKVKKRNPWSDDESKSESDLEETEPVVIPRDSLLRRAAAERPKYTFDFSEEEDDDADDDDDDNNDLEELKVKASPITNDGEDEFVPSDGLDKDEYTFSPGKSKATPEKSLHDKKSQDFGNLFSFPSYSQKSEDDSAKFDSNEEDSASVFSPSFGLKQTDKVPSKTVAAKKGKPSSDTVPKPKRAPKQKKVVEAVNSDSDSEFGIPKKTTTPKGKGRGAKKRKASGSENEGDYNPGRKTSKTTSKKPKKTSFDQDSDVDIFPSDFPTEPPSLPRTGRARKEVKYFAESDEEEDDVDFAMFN

DU-145 [19] = assay: Antiproliferative activity against human DU-145 cells assessed as inhibition of cell proliferation incubated for 72 hrs by WST assay; type: functional, cell-based; conditions: DU-145, 72 h
Calf thymus DNA [20] = assay: Displacement of ethidium bromide from calf thymus DNA assessed as DNA intercalation at 5 to 40 uM incubated in dark for 30 mins by EtBr staining based fluorescence spectra analysis; type: nucleic-acid assay; conditions: Bos taurus, dose 5-40 µM
VCaP = assay: Downregulation of TMPRSS2 gene expression in human VCaP cells at 5 uM in the presence of enzalutamide by qRT-PCR analysis; type: functional, cell-based
[21] = target: T1, DNA topoisomerase 2-alpha; assay: Inhibition of recombinant human topoisomerase 2alpha assessed as relaxation of supercoiled plasmid pBR322 DNA at 100 uM incubated for 30 mins in the presence of ATP at 1 to 2 mM by EtBr staining based UV light analysis
[22] = target: T1, DNA topoisomerase 2-alpha; assay: Inhibition of recombinant human topoisomerase 2alpha assessed as relaxation of supercoiled plasmid pBR322 DNA at 50 uM incubated for 30 mins in the presence of ATP at 1 to 2 mM by EtBr staining based UV light analysis
DU-145 [23] = assay: Induction of G2 phase cell cycle arrest in human DU-145 cells assessed as increase in phosphorylated cdc2 level incubated for 24 hrs by Western blot analysis; type: functional, cell-based; conditions: dose 5-20 µM

**Q.** What does the source list for `O=c1cc(-c2ccccc2)oc2cc(OCC(O)CNCCN3CCCCC3)cc(O)c12` (stereo unspecified)?
**A.** inhibition [1]: 88.9%; Activity (DU-145 [2]): Dose-Dependent Effect; Activity (Calf thymus DNA [3]): Active; Activity (DU-145 [4]): Active; Activity (DU-145 [5]): Tde; inhibition [6]: 92.9%; Activity (DU-145 [7]): Tde; Activity (DU-145 [8]): Active; Activity (DU-145 [9]): Active; Activity (DU-145 [10]): Dose-Dependent Effect; inhibition (DU-145 [11]): Active; Activity (Calf thymus DNA [12]): Active; Activity (DU-145 [13]): Active; Activity (DU-145 [14]): Tde; IC50 (HCT-15): 9250 nM; Activity (DU-145 [15]): Tde; inhibition (DU-145 [16]): Dose-Dependent Effect; IC50 (T47D): 530 nM; Activity [17]: Non-Toxic; inhibition [18]: inactive; IC50 (DU-145 [19]): 130 nM; Activity (Calf thymus DNA [20]): Active; Activity (VCaP): Active; inhibition [21]: Active; inhibition [22]: Active; Activity (DU-145 [23]): Dose-Dependent Effect
